Data as given in paper PMC11839646, “HPK1 kinase inhibitor: a sufficient approach to target HPK1 to modulate T cell activation in cancer immunotherapy compared with degraders” (Frontiers in Immunology, 2025).
pEC50, pIC50: −log10 of the molar value. Like-named read-outs stand apart in the source and are kept apart here.

Legend:
[1] = target: T1, HPK1 (Homo sapiens, UniProt Q92918); assay: Western blotting of TCR-induced signaling in HKO-EV, HKO-HPK1.WT and HKO-HPK1.K46E Jurkat cells; assay type: cell-based; design: expressed in transfected cells; host or cells: HPK1-knockout Jurkat single clone (EdiGene), lentiviral transduction, blasticidin-selected pool; conditions: compound pretreatment, OKT3 stimulation; for SLP76-S376 phosphorylation (Western blot): HKO-HPK1.WT Jurkat cells; for ERK1/2 phosphorylation (Western blot): HKO-HPK1.WT vs HKO-EV and HKO-HPK1.K46E Jurkat cells
Description: The Jurkat line with a homozygous knockout of HPK1 (HKO) single clone was purchased from EdiGene (Beijing, China). HKO-EV (HKO empty vector control), HKO-HPK1.WT (HKO overexpressing wildtype HPK1), and HKO-HPK1.K46E (HKO overexpressing kinase-dead HPK1) Jurkat pools were generated by lenti-vector transduction. In brief, the coding sequences of different HPK1 mutants were inserted into a FG12-BSD plasmid with the human phosphoglycerate kinase (hPGK) promoter (GenScript, Nanjing, China). Thereafter, 293T cells (ATCC) were transfected with those plasmids together with lentivirus packing plasmids pMD2.G and psPAX2. The culture medium containing virus was collected and used to infect HKO cells. Blasticidin 10 µg/mL (InvivoGen, San Diego, CA, USA) was used for the selection of infected cells. HPK1-knockin Jurkat cells (HPK1 K46*) and kinase-inactivated HPK1-knockin Jurkat cells (HPK1 K46E) were produced by introducing a Lys46Ter mutation or a Lys46Glu mutation to the HPK1 gene, respectively.
(§1) Jurkat cells were activated by anti-human CD3 (OKT3; 10 μg/mL, Thermo Fisher Scientific), while human peripheral blood cells were activated through TCR crosslinking by biotinylated OKT3 and streptavidin (7.5 μg/mL; Thermo Fisher Scientific). The cells were lysed at various time points post stimulation, and the lysate was denatured. The obtained samples were subjected to electrophoresis, and the separated proteins were electro-transferred onto a nitrocellulose membrane. Thereafter, the membranes were incubated with antibodies against HPK1 (E1C3L), phosphorylated SLP76-S376 (p-SLP76-S376; D7S1K), SLP76 (D1R1A), p-ERK1/2-T202/Y204 (D13.14.4E), p-PLCγ1-Y783 (polyclonal), PLCγ1 (D9H10), and glyceraldehyde-3-phosphate dehydrogenase (GAPDH; D4C6R). All antibodies used for immunoblotting were purchased from Cell Signaling Technology (Danvers, MA, USA).

[2] = target: T1, HPK1; assay: Western blotting of TCR-induced signaling in human PBMCs after TCR crosslinking; assay type: cell-based; design: Compound 2 degraded HPK1 in CD4^+ and CD8^+ T cells in a concentration-dependent manner; host or cells: human PBMCs (CD4+ and CD8+ T cells) from healthy donors
Experimental: (§2) Jurkat cells (ATCC, Manassas, VA, USA) and human peripheral blood mononuclear cells (PBMCs) were cultured in RPMI-1640 medium (Thermo Fisher Scientific, Waltham, MA, USA) supplemented with 10% heat-inactivated fetal bovine serum (Thermo Fisher) and 1% penicillin–streptomycin (Thermo Fisher Scientific) at 37°C in a humidified incubator with 5% CO2. The density of Jurkat cells was adjusted to 1 × 10^6/mL 24 h before conducting the experiment. Cryopreserved human PBMCs were purchased from Oribiotech (Shanghai, China); they were freshly thawed and cultured overnight prior to performing the experiment.
as §1

[3] = system: Jurkat cells; assay: IL-2 production by Jurkat cells stimulated with immobilized OKT3; assay type: cell-based, human; conditions: Jurkat cells pretreated 24 h, immobilized OKT3 24 h
Experimental: as §2
Jurkat cells were seeded in triplicates into those plates for stimulation and incubated for 24 h. Alternatively, Jurkat cells were pretreated with various concentrations of the aforementioned compounds for 24 h prior to stimulation with aforementioned immobilized OKT3. For cytokine analysis of human PBMCs, the cells were seeded into U-bottomed 96-well plates (Corning Inc.) and treated with the compounds for 24 h prior to stimulation. Next, the cells were stimulated by co-culture with HEK293/OS8/PD-L1 cells in the U-bottomed 96-well plates for another 24 h. HEK293/OS8/PD-L1 is a HEK293 cell line edited to stably co-express human PD-L1 (programmed death ligand 1) and single chain fragment variable (scFv) of OKT3 fused with transmembrane and cytoplasmic domains of murine CD8α, as previously described ([21]). Interleukin 2 (IL-2) and interferon-gamma (IFN-γ) in the supernatant were detected using the HTRF Human IL-2 Detection Kit and AlphaLISA Biotin-Free Human IFNγ Detection Kit (both obtained from Revvity, Waltham, MA, USA) according to the instructions provided by the manufacturer. Data were acquired with PHERAstar FSX (BMG LABTECH Inc., Cary, NC, USA).

[4] = target: T1, HPK1; assay: HPK1 degradation in Jurkat cells (intracellular staining, flow cytometry); assay type: cell-based; design: Compound 2 degraded HPK1 in CD4^+ and CD8^+ T cells in a concentration-dependent manner; host or cells: human PBMCs (CD4+ and CD8+ T cells) from healthy donors; conditions: for HPK1 degradation at high concentrations: 24 h treatment, ≥1,000 nM
Experimental: as §2
(§3) Jurkat cells or human PBMCs were pretreated in triplicates or quadruplicates with dimethyl sulfoxide or compounds for 24 h. For p-SLP76-S376 analysis, the cells were activated for 30 min with OKT3. For granzyme B and perforin analysis of human PBMCs, ultra-high binding 96-well plates (Corning Inc., Corning, NY, USA) were precoated with OKT3 overnight at 4°C. Human PBMCs were pretreated in quadruplicates with dimethyl sulfoxide or compounds for 24 h. The cells were then activated for another 24 h with precoated OKT3, followed by 2 h treatment with Protein Transport Inhibitor Cocktail (Thermo Fisher). The stimulated cells were fixed with BD Phosflow™ Lyse/Fix buffer (BD Biosciences, San Diego, CA, USA), washed and permeabilized with BD Perm Buffer III (BD Biosciences), and subsequently stained with a fluorescence-conjugated antibody against HPK1 (E1C3L; Cell Signaling Technology), p-SLP76-S376 (E3G9U; Cell Signaling Technology), granzyme B (GB11, BioLegend, San Diego, CA, USA), perforin (dG9, BioLegend) and anti-human CD3 (SK7, BioLegend), CD4 (SK3, BioLegend) and CD8 (SK1, BioLegend) for primary T cells. This was followed by data acquisition and analysis with the BD FACSymphony™ A1 Cell Analyzer (BD Biosciences).

[5] = system: HepG2 cells; assay: Real-time cell mediated cytotoxicity assay (xCELLigence RTCA), PBMC killing of HepG2; assay type: cell-based; conditions: PBMC:HepG2 5:1, compared to DMSO-pretreated PBMCs, up to 6 days post TCR stimulation
Experimental: For in vitro HepG2 cell killing, human PBMCs were pretreated in quadruplicates with dimethyl sulfoxide or compounds for 24 h, followed by stimulation by OKT3 for another 24 h. HepG2 cells were seeded at 2 × 10^4/well in a RTCA 96-well-E plate (Agilent Technologies, Sana Clara, CA, USA). 24 h after HepG2 seeding, the stimulated PBMCs were added at a PBMC: HepG2 cells ratio of 5:1. Target cell death was monitored using xCELLigence RTCA MP instrument (Agilent Technologies).

[6] = system: phosphorylation of SLP76-S376; assay: TCR-induced p-SLP76-S376 in Jurkat cells after OKT3 stimulation (flow cytometry); assay type: cell-based; conditions: Homo sapiens; Jurkat cells pretreated 24 h, OKT3 stimulation 30 min
Experimental: as §2, §3

[7] = target: T1, HPK1; assay: HPK1 degradation in CD4+ and CD8+ T cells of human PBMCs (flow cytometry); assay type: cell-based; design: Compound 2 degraded HPK1 in CD4^+ and CD8^+ T cells in a concentration-dependent manner; host or cells: human PBMCs (CD4+ and CD8+ T cells) from healthy donors; conditions: for HPK1 degradation at 1,000 nM / HPK1 degradation at high concentrations: CD4+ and CD8+ T cells in human PBMCs; for HPK1 degradation at 1,000 nM: 24 h, 1,000 nM; for HPK1 degradation at high concentrations: 24 h, ≥3,000 nM; for DC50: 24 h treatment, read-out: HPK1 degradation EC50
Experimental: as §2, §3

[8] = system: phosphorylation of SLP76-S376; assay: TCR-induced p-SLP76-S376 in CD4+ and CD8+ T cells of human PBMCs (flow cytometry); assay type: cell-based; conditions: for TCR-induced phosphorylation on SLP76-S376: 24 h pretreatment
Experimental: as §2, §3

[9] = system: CD8+ T cells of human PBMCs; assay: Granzyme B levels in CD8+ T cells of human PBMCs after OKT3 stimulation; assay type: cell-based; conditions: human PBMCs pretreated 24 h, OKT3 stimulation 24 h
Experimental: as §3

[10] = system: HPK1; design: method as in PMID 32860752, PMID 39446986, PMID 39568237; conditions: preclinical; cited from earlier work
[11] = system: human PBMCs; assay: IL-2 and IFN-γ production by human PBMCs co-cultured with HEK293/OS8/PD-L1; assay type: cell-based; conditions: human PBMCs pretreated 24 h, co-culture with HEK293/OS8/PD-L1 24 h
Experimental: as §2
Jurkat cells were seeded in triplicates into those plates for stimulation and incubated for 24 h. Alternatively, Jurkat cells were pretreated with various concentrations of the aforementioned compounds for 24 h prior to stimulation with aforementioned immobilized OKT3. For cytokine analysis of human PBMCs, the cells were seeded into U-bottomed 96-well plates (Corning Inc.) and treated with the compounds for 24 h prior to stimulation. […] Interleukin 2 (IL-2) and interferon-gamma (IFN-γ) in the supernatant were detected using the HTRF Human IL-2 Detection Kit and AlphaLISA Biotin-Free Human IFNγ Detection Kit (both obtained from Revvity, Waltham, MA, USA) according to the instructions provided by the manufacturer. […]

[12] = 300 nM and 1,000 nM pretreatment

T1 sequence (Q92918 whole entry): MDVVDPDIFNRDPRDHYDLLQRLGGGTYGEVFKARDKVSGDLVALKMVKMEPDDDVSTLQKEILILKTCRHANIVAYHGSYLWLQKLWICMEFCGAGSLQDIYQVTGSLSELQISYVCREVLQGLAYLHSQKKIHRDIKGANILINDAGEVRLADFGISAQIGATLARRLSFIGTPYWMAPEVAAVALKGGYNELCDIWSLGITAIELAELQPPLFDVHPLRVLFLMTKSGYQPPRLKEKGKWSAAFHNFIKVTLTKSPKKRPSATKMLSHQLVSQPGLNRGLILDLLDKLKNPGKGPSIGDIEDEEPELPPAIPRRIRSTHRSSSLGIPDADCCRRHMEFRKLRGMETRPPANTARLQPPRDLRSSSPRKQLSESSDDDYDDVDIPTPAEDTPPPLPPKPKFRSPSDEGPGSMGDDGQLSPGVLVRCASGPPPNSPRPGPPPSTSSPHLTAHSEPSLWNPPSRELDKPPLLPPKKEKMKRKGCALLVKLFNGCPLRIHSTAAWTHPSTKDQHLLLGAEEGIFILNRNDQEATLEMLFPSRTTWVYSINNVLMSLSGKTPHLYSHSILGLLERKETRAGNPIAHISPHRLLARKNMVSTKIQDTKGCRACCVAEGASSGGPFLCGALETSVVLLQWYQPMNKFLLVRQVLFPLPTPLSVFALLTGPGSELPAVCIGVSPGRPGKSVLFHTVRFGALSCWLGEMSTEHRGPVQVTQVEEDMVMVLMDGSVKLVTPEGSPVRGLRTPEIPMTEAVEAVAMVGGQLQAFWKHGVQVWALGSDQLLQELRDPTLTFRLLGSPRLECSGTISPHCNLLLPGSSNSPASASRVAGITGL

| SMILES | SLP76-S376 phosphorylation (Western blot) [1] | ERK1/2 phosphorylation (Western blot) [1] | HPK1 levels (Western blot) [2, 12] | SLP76-S376 phosphorylation (Western blot) [2, 12] | IL-2 production EC50 relative to Compound 2 [3] | IL-2 production, maximal level [3] | HPK1 degradation at high concentrations [4] | Cytotoxicity of pretreated PBMCs against HepG2 cells [5] | pIC50 [6] | HPK1 degradation at 1,000 nM [7] | HPK1 degradation at high concentrations [7] | TCR-induced phosphorylation on SLP76-S376 [8] | Granzyme B levels in CD8+ T cells [9] | further results |
| --- | --- | --- | --- | --- | --- | --- | --- | --- | --- | --- | --- | --- | --- | --- |
| Cc1cc(-c2cnc3[nH]cc(-c4ccc(C(=O)N(C)C)cc4)c3c2)cc2c1CN(CCC(=O)N1CCN(c3ccc(N4CCC(=O)N(C)C4=O)cc3)CC1)CC2 [Compound 3, N,N-dimethyl-4-(5-(8-methyl-2-(3-(4-(4-(3-methyl-2,4-dioxotetrahydropyrimidin-1(2H)-yl)phenyl)piperazin-1-yl)-3-oxopropyl)-1,2,3,4-tetrahydroisoquinolin-6-yl)-1H-pyrrolo[2,3-b]pyridin-3-yl)benzamide] | attenuated SLP76-S376 phosphorylation | enhanced ERK1/2 phosphorylation only in HKO-HPK1.WT Jurkat cells | without significantly affecting HPK1 levels | reduced or almost completely attenuated SLP76-S376 phosphorylation | higher | comparable with that induced by Compound 2 | resulted in the degradation of HPK1 | enhanced HepG2 killing ability of PBMCs, but to a less extent than Compound 1 or Compound 2 | 6.92 | did not significantly degrade HPK1 | limited HPK1 degradation | effectively reduced | – | – |
| Cc1cc(-c2cnc3[nH]cc(-c4ccc(C(=O)N(C)C)cc4)c3c2)cc2c1CN(C)CC2 [Compound 1, 4-(5-(2,8-dimethyl-1,2,3,4-tetrahydroisoquinolin-6-yl)-1H-pyrrolo[2,3-b]pyridin-3-yl)-N,N-dimethylbenzamide] | attenuated SLP76-S376 phosphorylation | enhanced ERK1/2 phosphorylation only in HKO-HPK1.WT Jurkat cells | without significantly affecting HPK1 levels | reduced or almost completely attenuated SLP76-S376 phosphorylation | higher | comparable with that induced by Compound 2 | resulted in the degradation of HPK1 | – | 6.92 | did not significantly degrade HPK1 | limited HPK1 degradation | effectively reduced | enhanced granzyme B levels | – |
| CC(C)(O)C#Cc1cccc(COc2cc(-c3cnc(C4CCN(C(=O)CCOCCOCCOCCOCCOc5cccc6c5C(=O)N(C5CCC(=O)NC5=O)C6=O)CC4)s3)cnc2N)c1 (stereo not drawn) [SS47] | – | – | – | – | – | – | – | – | – | – | – | – | – | Tumor suppression compared to the corresponding warhead [10]: greater tumor suppression |
| Cc1cc(-c2cnc3[nH]cc(-c4ccc(C(=O)N(C)C)cc4)c3c2)cc2c1CN(CCC(=O)N1CCN(c3ccc(N4CCC(=O)NC4=O)cc3)CC1)CC2 [Compound 2, 4-(5-(2-(3-(4-(4-(2,4-dioxotetrahydropyrimidin-1(2H)-yl)phenyl)piperazin-1-yl)-3-oxopropyl)-8-methyl-1,2,3,4-tetrahydroisoquinolin-6-yl)-1H-pyrrolo[2,3-b]pyridin-3-yl)-N,N-dimethylbenzamide] | attenuated SLP76-S376 phosphorylation | enhanced ERK1/2 phosphorylation only in HKO-HPK1.WT Jurkat cells | – | – | – | – | – | did not exhibited stronger cytotoxicity against HepG2 cells | ~7.70 | – | – | effectively reduced | enhanced granzyme B levels | HPK1 levels (Western blot) ([2]; 300 nM pretreatment): almost complete degradation of HPK1; SLP76-S376 phosphorylation (Western blot) ([2]; 300 nM pretreatment): attenuation of SLP76-S376 phosphorylation; pEC50 ([3]; Homo sapiens): ~6.70; HPK1 degradation, time course ([4]; 1 μM, within 24 h): effectively degraded HPK1; DC50 ([7]; CD4+ T cells in human PBMCs): 0.0115 µM; DC50 ([7]; CD8+ T cells in human PBMCs): 0.026 µM; IC50 for SLP76-S376 phosphorylation relative to the other two compounds [8]: lower in both populations; Maximal enhancement of TCR-induced IL-2 and IFN-γ production [11]: not stronger than that after treatment with Compound 1 |
